Experiment in all cases: bio-layer interferometry
In general terms: BLI is a label-free optical method that tracks binding on a fibre tip over time.

The subject of assay [1] is intermolecular hTELO-G4 (DNA, G4) TTAGGGTTAGGGTTAGGG
As to conditions: PBS (ion concentrations not given), 0.5% DMSO, 0.02% Tween-20, highest hemin 8 μM.

Assay [2] deals with hTELO-G4 (DNA, G4) GGTTAGGGTTAGGGTTAGGGTTAGGGTTAG
As to conditions: PBS (ion concentrations not given), 0.5% DMSO, 0.02% Tween-20, highest hemin 8 μM.

In assay [3] the test system is double-stranded DNA (DNA, duplex) GGCATAGTGCGTGGGCG/CGCCCACGCACTATGCC
Particulars: PBS (ion concentrations not given), 0.5% DMSO, 0.02% Tween-20, highest hemin 8 μM.

The subject of assay [4] is MYC-G4 (DNA, G4) TGAGGGTGGGTAGGGTGGGTAA
Particulars: PBS (ion concentrations not given), 0.5% DMSO, 0.02% Tween-20, 25 °C sensor hydration.

Assay [5] has as its system ssDNA oligonucleotide (DNA, single strand) GGCATAGTGCGTGGGCG
Particulars: PBS (ion concentrations not given), 0.5% DMSO, 0.02% Tween-20, highest hemin 8 μM.

Assay [6] concerns SPB1-G4 (DNA, G4) GGCGAGGGGCGTGGCCGGC
Particulars: PBS (ion concentrations not given), 0.5% DMSO, 0.02% Tween-20, highest hemin 8 μM.

Regarding `C=CC1=C(C)c2cc3[n-]c(cc4[n-]c(cc5nc(cc1n2)C(C)=C5C=C)c(C)c4CCC(=O)O)c(CCC(=O)O)c3C.[Cl-].[Fe+3]`, the binding result in assay [1], in assay [2], in assay [3], in assay [5] and in assay [6] was “no” throughout. In assay [4] (hemin 0.5-8 μM), this compound returned a KD of 1520 ± 40 nM.
`C=CC1=C(C)c2cc3[nH]c(cc4nc(cc5[nH]c(cc1n2)c(C)c5CCC(=O)O)C(CCC(=O)O)=C4C)c(C)c3C=C` gave a KD in assay [4] (PpIX 1.25-20 μM) of 3040 ± 50 nM. This lies in the single-digit micromolar range.

As usually defined, the KD is the free concentration of one partner at which half of the binding sites on the other are occupied at equilibrium, for simple one-to-one binding.

Values taken from PMC9753424 (2022).
